A short description of one data set: Toxicity tests in mice. The data set is classed as in vivo. The note with it: 100 mg/kg i.p., after 1 month of treatment.
The next data set in a line: Solubility. The data set is classed as physicochemical.
A further data set relates to S. aureus FDA 209P. The experiment in a line: Minimum inhibitory concentration (MIC), antimicrobial activity. The format is cell-based. As to conditions: Staphylococcus aureus, FDA209P. The method, then:
(§1) The antimicrobial activity of the PTL-448 derivatives of the invention is illustrated in Table 3, which is a summary of the results of a number of tests carried out to determine minimum inhibitory concentrations (MIC) of the derivatives against a number of typical bacteria. Comparative results for Spiramycin I (SPM I) and III (SPM III) are also given. Tests were carried out using heart infusion agar media (pH 7 at 37° C., after about 20 hours).

The subject of data set [1] is Staphylococcus aureus ATCC 6538P. Described as above. The format is cell-based. As to conditions: ATCC6538P. The method, then:
as §1

The test system of data set [2] is Micrococcus luteus ATCC 9341. Described as above. The data set is classed as cell-based. The method, then: as §1
For data set [3], the system named is Streptococcus pneumoniae III KB 165. The data set is described as above. The data set is classed as cell-based. The method, then: as §1
For a further data set, the system named is B. cereus IFO 3001. The description is as above. The format is cell-based. The note with it: Bacillus cereus. The method, then: as §1
Another data set relates to E. coli N-33. The description is as above. The format is cell-based. As to conditions: Escherichia coli. The method, then:
as §1

The subject of data set [4] is Klebsiella pneumoniae ATCC 10031. The data set is described as above. The data set is classed as cell-based. The method, then: as §1
For data set [5], the system named is Salmonella typhimurium KB 20. The description is as above. The format is cell-based. The note with it: Salmonella enterica. The method, then: as §1
The test system of data set [6] is Bacillus subtilis PCI 219. The description is as above. The format is cell-based. The method, then:
as §1

Data set [7] has as its system Acholeplasma laidlawii PG-8. Nature of the data set: Activity against Mycoplasma, paper disk inhibition zone. The format is cell-based. The note with it: paper disk 8 mm in diameter, 37° C., about 48 hours. The method, then:
(§2) In addition, the activity of the PTL-448 derivatives against Mycoplasma was examined by conventional methods (paper disk 8 mm in diameter, 37° C., about 48 hours).

For data set [8], the system named is Mycoplasma gallisepticum KP-13. The description is as above. The data set is classed as cell-based. The note with it: paper disk 8 mm in diameter, 37° C., about 48 hours. The method, then: as §2
For a further data set, the system named is S. pyogenes KB 166. Nature of the data set: Minimum inhibitory concentration (MIC), antimicrobial activity. The note with it: Streptococcus pyogenes, KB166, heart infusion agar, pH 7, 37° C., about 20 hours. The format is cell-based. The method, then:
as §1

[9] abbreviates: methanol, ethanol, acetone, ethyl acetate, chloroform, benzene.
Where [10] appears, read: S. aureus FDA 209P, heart infusion agar, pH 7, 37° C., about 20 hours, read-out: MIC.
Setting [11] is: Staphylococcus aureus ATCC 6538P, heart infusion agar, pH 7, 37° C., about 20 hours, read-out: MIC.
Where [12] appears, read: ATCC9341, Micrococcus luteus ATCC 9341, heart infusion agar, pH 7, 37° C., about 20 hours, read-out: MIC.
Where [13] appears, read: IIIKB165, Streptococcus pneumoniae III KB 165, heart infusion agar, pH 7, 37° C., about 20 hours, read-out: MIC.
[14] abbreviates: IFO3001, B. cereus IFO 3001, heart infusion agar, pH 7, 37° C., about 20 hours, read-out: MIC.
[15] abbreviates: N33, E. coli N-33, heart infusion agar, pH 7, 37° C., about 20 hours, read-out: MIC.
The mark [16] stands for this setting: ATCC10031, Klebsiella pneumoniae ATCC 10031, heart infusion agar, pH 7, 37° C., about 20 hours, read-out: MIC.
[17] abbreviates: Salmonella typhimurium KB 20, heart infusion agar, pH 7, 37° C., about 20 hours, read-out: MIC.
[18] abbreviates: PCI219, Bacillus subtilis PCI 219, heart infusion agar, pH 7, 37° C., about 20 hours, read-out: MIC.

This is an account of results in US4609645A, “Macrolide antibiotics, pharmaceutical compositions and methods of use” (priority 1983, dated 1986).

In brackets after ≈: the same amount, converted by molar mass. Like-named read-outs stand apart in the source and are kept apart here.

As to `CCC1OC(=O)CC(OC(C)=O)C(C)C(OC2OC(C)C(OC3CC(C)(O)C(O)C(C)O3)C(N(C)C)C2O)C(CC=O)CC(C)C(OC2CCC(N(C)C)C(C)O2)C=CC(C)=CC1C` (stereo not shown) [PTL-448-A], the fatalities entry in the data set “Toxicity tests in mice” is reported as “no fatalities occurred”. Also, the Solubility entry was “Slightly soluble” in the data set “Solubility” (ether, n-hexane); “Soluble” in “Solubility” (setting [9]); “Insoluble” in the data set “Solubility” (water). In addition, the MIC in the data set on S. aureus FDA 209P (setting [10]) came to 6.25 µg/mL (≈ 6.86 µM); in data set [1] (setting [11]) it was 6.25 µg/mL (≈ 6.86 µM); in data set [2] (setting [12]), 0.4 µg/mL (≈ 0.439 µM); in [3] (setting [13]) it was 0.4 µg/mL (≈ 0.439 µM); in the data set with B. cereus IFO 3001 (setting [14]), 3.12 µg/mL (≈ 3.42 µM); with E. coli N-33 (setting [15]), 1.56 µg/mL (≈ 1.71 µM). Besides, the MIC is above 100 µg/mL in data set [4] (setting [16]), above 100 µg/mL in data set [5] (setting [17]) and 1.56 µg/mL (≈ 1.71 µM) in [6] (setting [18]). Further, the “Diameter of Inhibition Zone” value in data set [7] came out at 32.6 mm; in data set [8], 29.2 mm.
For `CCC1OC(=O)CC(O)C(C)C(OC2OC(C)C(OC3CC(C)(O)C(O)C(C)O3)C(N(C)C)C2O)C(CC=O)CC(C)C(OC2CCC(N(C)C)C(C)O2)C=CC(C)=CC1C` (stereo not shown) [PTL-448-B], the fatalities entry in the data set “Toxicity tests in mice” is on record as “no fatalities occurred”. The Solubility entry in the data set “Solubility” (ether, n-hexane) is recorded as “Slightly soluble”; in the data set “Solubility” (setting [9]) it was “Soluble”; in the data set “Solubility” (water), “Insoluble”. Moreover, the minimal inhibitory concentration (MIC) in the data set on S. aureus FDA 209P (setting [10]) stood at 3.12 µg/mL (≈ 3.59 µM); in data set [1] (setting [11]) it was 3.12 µg/mL (≈ 3.59 µM); in data set [2] (setting [12]) it was 0.4 µg/mL (≈ 0.46 µM); in data set [3] (setting [13]), 0.4 µg/mL (≈ 0.46 µM); in the data set on B. cereus IFO 3001 (setting [14]), 1.56 µg/mL (≈ 1.79 µM); in the data set on E. coli N-33 (setting [15]), 0.78 µg/mL (≈ 0.897 µM). Further, the MIC was above 100 µg/mL in data set [4] (setting [16]), above 100 µg/mL in data set [5] (setting [17]), 0.4 µg/mL (≈ 0.46 µM) in the data set on S. pyogenes KB 166 and 0.78 µg/mL (≈ 0.897 µM) in data set [6] (setting [18]). Also, the figures for the “Diameter of Inhibition Zone” value in [7] and in data set [8] were 31.4 mm and 30.1 mm, respectively.
In the case of `CCC1OC(=O)CC(OC(C)=O)C(C)C(OC2OC(C)C(O)C(N(C)C)C2O)C(CC=O)CC(C)C(OC2CCC(N(C)C)C(C)O2)C=CC(C)=CC1C` (stereo not shown) [PTL-448-C], the fatalities result in “Toxicity tests in mice” was “no fatalities occurred”. Moreover, the Solubility entry in the data set “Solubility” (ether, n-hexane) is given as “Slightly soluble”; in the data set “Solubility” (setting [9]) it was “Soluble”; in “Solubility” (water), “Insoluble”. Also, the MIC amounted to 1.56 µg/mL (≈ 2.03 µM) with S. aureus FDA 209P (setting [10]); 1.56 µg/mL (≈ 2.03 µM) in data set [1] (setting [11]); 0.4 µg/mL (≈ 0.522 µM) in data set [2] (setting [12]); 0.2 µg/mL (≈ 0.261 µM) in data set [3] (setting [13]); 1.56 µg/mL (≈ 2.03 µM) in the data set with B. cereus IFO 3001 (setting [14]); 0.4 µg/mL (≈ 0.522 µM) in the data set on E. coli N-33 (setting [15]). In addition, the MIC turned out to be 50 µg/mL (≈ 65.2 µM) in [4] (setting [16]), 50 µg/mL (≈ 65.2 µM) in [5] (setting [17]), 0.4 µg/mL (≈ 0.522 µM) against S. pyogenes KB 166 and 1.56 µg/mL (≈ 2.03 µM) in data set [6] (setting [18]). For the same molecule, the “Diameter of Inhibition Zone” value in data set [7] turned out to be 33.1 mm.
With `CCC1OC(=O)CC(O)C(C)C(OC2OC(C)C(O)C(N(C)C)C2O)C(CC=O)CC(C)C(OC2CCC(N(C)C)C(C)O2)C=CC(C)=CC1C` (stereo not shown) [PTL-448-D], in “Toxicity tests in mice”, the fatalities result was “no fatalities occurred”. Further, the Solubility entry is recorded as “Slightly soluble” in “Solubility” (ether, n-hexane); “Soluble” in “Solubility” (setting [9]); “Insoluble” in the data set “Solubility” (water). In addition, the MIC in the data set with S. aureus FDA 209P (setting [10]) stood at 1.56 µg/mL (≈ 2.15 µM); in [1] (setting [11]), 1.56 µg/mL (≈ 2.15 µM); in [2] (setting [12]), 0.2 µg/mL (≈ 0.276 µM); in [3] (setting [13]), 0.2 µg/mL (≈ 0.276 µM); with B. cereus IFO 3001 (setting [14]), 1.56 µg/mL (≈ 2.15 µM); in the data set with E. coli N-33 (setting [15]) it was 0.2 µg/mL (≈ 0.276 µM). Besides, the MIC was 25 µg/mL (≈ 34.5 µM) in data set [4] (setting [16]), 25 µg/mL (≈ 34.5 µM) in data set [5] (setting [17]), 0.4 µg/mL (≈ 0.552 µM) in the data set with S. pyogenes KB 166 and 1.56 µg/mL (≈ 2.15 µM) in data set [6] (setting [18]). In data set [7], the “Diameter of Inhibition Zone” value is 32.0 mm.
As for `COC1C(O)CC(=O)OC(C)CC=CC=CC(OC2CCC(N(C)C)C(C)O2)C(C)CC(CC=O)C1OC1OC(C)C(OC2CC(C)(O)C(O)C(C)O2)C(N(C)C)C1O` (stereo not shown) [SPM I, Spiramycin I, reference compound], the MIC against S. aureus FDA 209P (20 h, pH 7) was 6.25 µg/mL (≈ 7.41 µM); in data set [1] (Staphylococcus aureus, 20 h, pH 7), 6.25 µg/mL (≈ 7.41 µM); in data set [2] (Micrococcus luteus, ATCC9341, 20 h, pH 7), 0.4 µg/mL (≈ 0.474 µM); in data set [3] (Streptococcus pneumoniae, IIIKB165, 20 h, pH 7), 0.4 µg/mL (≈ 0.474 µM); against B. cereus IFO 3001 (IFO3001, 20 h, pH 7) it was 3.12 µg/mL (≈ 3.7 µM); against E. coli N-33 (N33, 20 h, pH 7), 1.56 µg/mL (≈ 1.85 µM). For the same molecule, the MIC is above 100 µg/mL in [4] (Klebsiella pneumoniae, ATCC10031, 20 h, pH 7); above 100 µg/mL in data set [5] (TYPHIMURIUM, 20 h, pH 7); 1.56 µg/mL (≈ 1.85 µM) in data set [6] (Bacillus subtilis, PCI219, 20 h, pH 7).
Consider `CCC(=O)OC1CC(=O)OC(C)CC=CC=CC(OC2CCC(N(C)C)C(C)O2)C(C)CC(CC=O)C(OC2OC(C)C(OC3CC(C)(O)C(O)C(C)O3)C(N(C)C)C2O)C1OC` (stereo not shown) [SPM III, Spiramycin III, reference compound], for which the MIC amounted to 12.5 µg/mL (≈ 13.9 µM) with S. aureus FDA 209P (setting [10]); 12.5 µg/mL (≈ 13.9 µM) in data set [1] (setting [11]); 0.4 µg/mL (≈ 0.445 µM) in data set [2] (setting [12]); 0.4 µg/mL (≈ 0.445 µM) in [3] (setting [13]); 3.12 µg/mL (≈ 3.47 µM) with B. cereus IFO 3001 (setting [14]); 1.56 µg/mL (≈ 1.74 µM) in the data set with E. coli N-33 (setting [15]). The results for the MIC in data set [4] (setting [16]), in data set [5] (setting [17]) and in [6] (setting [18]) were above 100 µg/mL, above 100 µg/mL and 1.56 µg/mL (≈ 1.74 µM), respectively.

What is called MIC is the least concentration at which growth counts as inhibited.
